Measured values as given in ChEMBL document CHEMBL1201861, “Genomics of Drug Sensitity in Cancer screening data, Wellcome Trust Sanger Institute”.

Tests used:
Assay in all cases: cells
COLO-824 = assay type: functional, cell-based, Homo sapiens; details: Homo sapiens, COLO-824
Description: SANGER: Inhibition of human COLO-824 cell growth in a cell viability assay.

DMS-79 = assay type: functional, cell-based; details: Homo sapiens;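 note: growth inhibition measured with a cell viability assay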
Description: SANGER: Inhibition of human DMS-79 cell growth in a cell viability assay.

EKVX = assay type: functional, cell-based, Homo sapiens; details: Homo sapiens, EKVX;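 note: growth inhibition of human EKVX cells, read out with a cell viability assay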
Description: SANGER: Inhibition of human EKVX cell growth in a cell viability assay.

ETK-1 = assay type: functional, cell-based, Homo sapiens; details: Homo sapiens, ETK-1;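 note: growth inhibition of human ETK-1 cells, read out with a cell viability assay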
Description: SANGER: Inhibition of human ETK-1 cell growth in a cell viability assay.

EW-18 = assay type: functional, cell-based; details: Homo sapiens;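 note: growth inhibition of EW-18 cells, read out by a cell viability assay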
Description: SANGER: Inhibition of human EW-18 cell growth in a cell viability assay.

GI-1 = assay type: functional, cell-based, Homo sapiens; details: Homo sapiens, GI-1;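 note: growth inhibition of human GI-1 cells, measured with a cell viability readout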
Description: SANGER: Inhibition of human GI-1 cell growth in a cell viability assay.

HCC1187 = assay type: functional, cell-based, Homo sapiens; details: Homo sapiens, HCC1187;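 note: growth inhibition of HCC1187 cells, read out with a cell viability assay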
Description: SANGER: Inhibition of human HCC1187 cell growth in a cell viability assay.

HCC38 = assay type: functional, cell-based, Homo sapiens; details: Homo sapiens, HCC38;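 note: cell viability assay on the human HCC38 cell line, with IC50 marking the concentration that inhibits cell growth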
Description: SANGER: Inhibition of human HCC38 cell growth in a cell viability assay.

HSC-3 = assay type: functional, cell-based, Homo sapiens; details: Homo sapiens, HSC-3
Description: SANGER: Inhibition of human HSC-3 cell growth in a cell viability assay.

JEG-3 = assay type: functional, cell-based, Homo sapiens; details: Homo sapiens, JEG-3;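 note: growth inhibition of human JEG-3 cells, read out with a cell viability assay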
Description: SANGER: Inhibition of human JEG-3 cell growth in a cell viability assay.

K5 = assay type: functional, cell-based, Homo sapiens; details: Homo sapiens, K5
KARPAS-45 = assay type: functional, cell-based; details: Homo sapiens;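 note: inhibition of cell line growth, read out through a viability assay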
Description: SANGER: Inhibition of human KARPAS-45 cell growth in a cell viability assay.

KU812 cell line = assay type: functional, cell-based; details: Homo sapiens;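 note: growth inhibition of KU812 cells, read out with a cell viability assay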
Description: SANGER: Inhibition of human KU812 cell growth in a cell viability assay.

KYSE-140 = assay type: functional, cell-based, Homo sapiens; details: Homo sapiens, KYSE-140;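 note: cell viability assay measuring growth inhibition in human KYSE-140 cells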
Description: SANGER: Inhibition of human KYSE-140 cell growth in a cell viability assay.

KYSE-270 = assay type: functional, cell-based, Homo sapiens; details: Homo sapiens, KYSE-270;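 note: cell growth inhibition measured with a viability assay in the human KYSE-270 line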
Description: SANGER: Inhibition of human KYSE-270 cell growth in a cell viability assay.

LS-1034 = assay type: functional, cell-based, Homo sapiens; details: Homo sapiens, LS-1034
Description: SANGER: Inhibition of human LS-1034 cell growth in a cell viability assay.

MDA-MB-157 = assay type: functional, cell-based, Homo sapiens; details: Homo sapiens, MDA-MB-157
Description: SANGER: Inhibition of human MDA-MB-157 cell growth in a cell viability assay.

MDA-MB-231 = assay type: functional, cell-based, Homo sapiens; details: Homo sapiens, MDA-MB-231
Description: SANGER: Inhibition of human MDA-MB-231 cell growth in a cell viability assay.

MEL-HO = assay type: functional, cell-based, Homo sapiens; details: Homo sapiens, MEL-HO
Description: SANGER: Inhibition of human MEL-HO cell growth in a cell viability assay.

NB13 = assay type: functional, cell-based, Homo sapiens; details: Homo sapiens, NB13;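 note: cell viability readout measuring growth inhibition of human NB13 cells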
Description: SANGER: Inhibition of human NB13 cell growth in a cell viability assay.

NB14 = assay type: functional, cell-based; details: Homo sapiens;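 note: growth inhibition of NB14 cells measured with a cell viability assay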
Description: SANGER: Inhibition of human NB14 cell growth in a cell viability assay.

NB69 = assay type: functional, cell-based, Homo sapiens; details: Homo sapiens, NB69;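 note: growth inhibition of NB69 cells, determined by a cell viability assay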
Description: SANGER: Inhibition of human NB69 cell growth in a cell viability assay.

NCI-H1304 = assay type: functional, cell-based; details: Homo sapiens;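 note: growth inhibition of the cancer cell line, measured in a cell viability assay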
Description: SANGER: Inhibition of human NCI-H1304 cell growth in a cell viability assay.

NCI-H1355 = assay type: functional, cell-based, Homo sapiens; details: Homo sapiens, NCI-H1355;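 note: growth inhibition of human NCI-H1355 cells, read out by a cell viability assay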
Description: SANGER: Inhibition of human NCI-H1355 cell growth in a cell viability assay.

NCI-H292 = assay type: functional, cell-based, Homo sapiens; details: Homo sapiens, NCI-H292;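 note: growth inhibition of NCI-H292 cells, read out with a cell viability assay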
Description: SANGER: Inhibition of human NCI-H292 cell growth in a cell viability assay.

NCI-H596 = assay type: functional, cell-based, Homo sapiens; details: Homo sapiens, NCI-H596;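 note: growth inhibition of NCI-H596 cells, read out with a cell viability assay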
Description: SANGER: Inhibition of human NCI-H596 cell growth in a cell viability assay.

NUGC-3 = assay type: functional, cell-based, Homo sapiens; details: Homo sapiens, NUGC-3;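 note: growth inhibition of human NUGC-3 cells, read out with a cell viability assay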
Description: SANGER: Inhibition of human NUGC-3 cell growth in a cell viability assay.

OCI-AML2 = assay type: functional, cell-based; details: Homo sapiens;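 note: growth inhibition of OCI-AML2 cells, read out with a cell viability assay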
Description: SANGER: Inhibition of human OCI-AML2 cell growth in a cell viability assay.

OMC-1 = assay type: functional, cell-based, Homo sapiens; details: Homo sapiens, OMC-1;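 note: growth inhibition of the OMC-1 cell line, measured by a cell viability assay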
Description: SANGER: Inhibition of human OMC-1 cell growth in a cell viability assay.

RERF-LC-MS = assay type: functional, cell-based, Homo sapiens; details: Homo sapiens, RERF-LC-MS;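 note: growth inhibition of human RERF-LC-MS cells, read out by a cell viability assay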
Description: SANGER: Inhibition of human RERF-LC-MS cell growth in a cell viability assay.

RPMI-7951 = assay type: functional, cell-based, Homo sapiens; details: Homo sapiens, RPMI-7951
Description: SANGER: Inhibition of human RPMI-7951 cell growth in a cell viability assay.

SCC-15 = assay type: functional, cell-based, Homo sapiens; details: Homo sapiens, SCC-15;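 note: growth inhibition of SCC-15 cells, read out with a cell viability assay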
Description: SANGER: Inhibition of human SCC-15 cell growth in a cell viability assay.

SK-LU-1 = assay type: functional, cell-based, Homo sapiens; details: Homo sapiens, SK-LU-1;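 note: cell viability assay measuring growth inhibition of human SK-LU-1 cells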
Description: SANGER: Inhibition of human SK-LU-1 cell growth in a cell viability assay.

SK-PN-DW = assay type: functional, cell-based; details: Homo sapiens;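 note: growth inhibition measured with a viability assay on these cells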
Description: SANGER: Inhibition of human SK-PN-DW cell growth in a cell viability assay.

SK-UT-1 = assay type: functional, cell-based, Homo sapiens; details: Homo sapiens, SK-UT-1;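 note: growth inhibition of SK-UT-1 cells, measured by a cell viability assay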
Description: SANGER: Inhibition of human SK-UT-1 cell growth in a cell viability assay.

SW1783 = assay type: functional, cell-based; details: Homo sapiens;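 note: cell growth inhibition measured with a viability assay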
Description: SANGER: Inhibition of human SW1783 cell growth in a cell viability assay.

SW626 = assay type: functional, cell-based, Homo sapiens; details: Homo sapiens, SW626;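 note: growth inhibition of SW626 cells, measured with a cell viability assay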
Description: SANGER: Inhibition of human SW626 cell growth in a cell viability assay.

SW948 = assay type: functional, cell-based, Homo sapiens; details: Homo sapiens, SW948;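 note: growth inhibition of SW948 cells, read out with a cell viability assay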
Description: SANGER: Inhibition of human SW948 cell growth in a cell viability assay.

SiHa = assay type: functional, cell-based, Homo sapiens; details: Homo sapiens, SiHa;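 note: Viability-based readout of growth inhibition in SiHa cells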
Description: SANGER: Inhibition of human SiHa cell growth in a cell viability assay.

T84 = assay type: functional, cell-based, Homo sapiens; details: Homo sapiens, T84;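 note: growth inhibition measured with a cell viability readout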
Description: SANGER: Inhibition of human T84 cell growth in a cell viability assay.

ALL-PO = assay type: functional, cell-based; details: Homo sapiens;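 note: growth inhibition of ALL-PO cells, read out by a cell viability assay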
Description: SANGER: Inhibition of human ALL-PO cell growth in a cell viability assay.

ATN-1 = assay type: functional, cell-based; details: Homo sapiens;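 note: growth inhibition of human ATN-1 cells, read out with a cell viability assay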
Description: SANGER: Inhibition of human ATN-1 cell growth in a cell viability assay.

BB30-HNC = assay type: functional, cell-based, Homo sapiens; details: Homo sapiens, BB30-HNC;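 note: growth inhibition of the cultured cell line, read out by a cell viability assay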
Description: SANGER: Inhibition of human BB30-HNC cell growth in a cell viability assay.

CAL-85-1 = assay type: functional, cell-based; details: Homo sapiens;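 note: growth inhibition of human CAL-85-1 cells, read out with a cell viability assay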
TE-8 = assay type: functional, cell-based, Homo sapiens; details: Homo sapiens, TE-8;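 note: growth inhibition of TE-8 cells, measured with a cell viability readout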
Description: SANGER: Inhibition of human TE-8 cell growth in a cell viability assay.

TK-10 = assay type: functional, cell-based, Homo sapiens; details: Homo sapiens, TK-10;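 note: growth inhibition of TK-10 cells, read out in a cell viability assay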
Description: SANGER: Inhibition of human TK10 cell growth in a cell viability assay.

U-118-MG = assay type: functional, cell-based, Homo sapiens; details: Homo sapiens, U-118-MG
Description: SANGER: Inhibition of human U-118-MG cell growth in a cell viability assay.

UO-31 = assay type: functional, cell-based; details: Homo sapiens;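 note: cell viability assay measuring inhibition of cell growth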
Description: SANGER: Inhibition of human U031 cell growth in a cell viability assay.

UMUC3 = assay type: functional, cell-based, Homo sapiens; details: Homo sapiens, UMUC3;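 note: growth inhibition of human UM-UC-3 cells, read out with a cell viability assay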
Description: SANGER: Inhibition of human UM-UC-3 cell growth in a cell viability assay.

CCRF-CEM = assay type: functional, cell-based; details: Homo sapiens;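 note: inhibition of CCRF-CEM cell growth, measured by a cell viability assay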
Description: SANGER: Inhibition of human CCRF-CEM cell growth in a cell viability assay.

COLO-320-HSR = assay type: functional, cell-based; details: Homo sapiens;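 note: growth inhibition of COLO-320-HSR cells, determined with a cell viability assay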
Description: SANGER: Inhibition of human COLO-320-HSR cell growth in a cell viability assay.

COLO-668 = assay type: functional, cell-based, Homo sapiens; details: Homo sapiens, COLO-668
Description: SANGER: Inhibition of human COLO-668 cell growth in a cell viability assay.

COLO-684 = assay type: functional, cell-based; details: Homo sapiens
Description: SANGER: Inhibition of human COLO-684 cell growth in a cell viability assay.

Nc1ccn([C@@H]2O[C@H](CO)[C@@H](O)[C@@H]2O)c(=O)n1 [CYTARABINE] was tested, and the IC50 (COLO-824) was over 2000 nM, the IC50 (DMS-79) was over 2000 nM and the IC50 (EKVX) was over 2000 nM. For the same compound, the IC50 (ETK-1) was over 2000 nM, the IC50 (EW-18) was over 2000 nM and the IC50 (GI-1) was 339 nM. For the same compound, the IC50 (HCC1187) was over 2000 nM, the IC50 (HCC38) was 1880 nM and the IC50 (HSC-3) was 400 nM. For the same compound, the IC50 (JEG-3) was 431 nM, the IC50 (K5) was 43.2 nM and the IC50 (KARPAS-45) was over 2000 nM. For the same compound, the IC50 (KU812 cell line) was over 2000 nM, the IC50 (KYSE-140) was over 2000 nM and the IC50 (KYSE-270) was 849 nM. The IC50 (LS-1034) was over 2000 nM, the IC50 (MDA-MB-157) was 1390 nM and the IC50 (MDA-MB-231) was over 2000 nM. It also gave an IC50 (MEL-HO) of over 2000 nM, an IC50 (NB13) of over 2000 nM and an IC50 (NB14) of 310 nM. It also gave an IC50 (NB69) of 79.5 nM, an IC50 (NCI-H1304) of over 2000 nM and an IC50 (NCI-H1355) of 556 nM. For the same compound, the IC50 (NCI-H292) was 114 nM, the IC50 (NCI-H596) was over 2000 nM and the IC50 (NUGC-3) was 589 nM. The IC50 (OCI-AML2) was 545 nM, the IC50 (OMC-1) was 832 nM and the IC50 (RERF-LC-MS) was 1760 nM. For the same compound, the IC50 (RPMI-7951) was 340 nM, the IC50 (SCC-15) was 1080 nM and the IC50 (SK-LU-1) was 1310 nM. For the same compound, the IC50 (SK-PN-DW) was 416 nM, the IC50 (SK-UT-1) was 181 nM and the IC50 (SW1783) was over 2000 nM. The IC50 (SW626) was over 2000 nM, the IC50 (SW948) was over 2000 nM and the IC50 (SiHa) was 856 nM. For the same compound, the IC50 (T84) was over 2000 nM, the IC50 (ALL-PO) was 287 nM and the IC50 (ATN-1) was 366 nM. It also gave an IC50 (BB30-HNC) of over 2000 nM, an IC50 (CAL-85-1) of over 2000 nM and an IC50 (TE-8) of 219 nM. The IC50 (TK-10) was 1730 nM, the IC50 (U-118-MG) was over 2000 nM and the IC50 (UO-31) was 1250 nM. It also gave an IC50 (UMUC3) of 342 nM, an IC50 (CCRF-CEM) of over 2000 nM and an IC50 (COLO-320-HSR) of over 2000 nM. The IC50 (COLO-668) was 809 nM and the IC50 (COLO-684) was over 2000 nM.
CN(C)C/C=C/C(=O)Nc1cc2c(Nc3ccc(F)c(Cl)c3)ncnc2cc1O[C@H]1CCOC1 [AFATINIB] was tested, and the IC50 (COLO-824) was over 500 nM, the IC50 (DMS-79) was over 500 nM and the IC50 (EKVX) was over 500 nM. For the same compound, the IC50 (ETK-1) was over 500 nM, the IC50 (EW-18) was over 500 nM and the IC50 (GI-1) was over 500 nM. The IC50 (HCC1187) was over 500 nM, the IC50 (HCC38) was over 500 nM and the IC50 (HSC-3) was 212 nM. The IC50 (JEG-3) was over 500 nM, the IC50 (K5) was over 500 nM and the IC50 (KARPAS-45) was 16.7 nM. It also gave an IC50 (KU812 cell line) of 155 nM, an IC50 (KYSE-140) of 83.3 nM and an IC50 (KYSE-270) of over 500 nM. For the same compound, the IC50 (LS-1034) was over 500 nM, the IC50 (MDA-MB-157) was over 500 nM and the IC50 (MDA-MB-231) was over 500 nM. The IC50 (MEL-HO) was over 500 nM, the IC50 (NB13) was over 500 nM and the IC50 (NB14) was over 500 nM. It also gave an IC50 (NB69) of over 500 nM, an IC50 (NCI-H1304) of over 500 nM and an IC50 (NCI-H1355) of over 500 nM. The IC50 (NCI-H292) was 60.9 nM, the IC50 (NCI-H596) was over 500 nM and the IC50 (NUGC-3) was 384 nM. It also gave an IC50 (OCI-AML2) of over 500 nM, an IC50 (OMC-1) of over 500 nM and an IC50 (RERF-LC-MS) of over 500 nM. The IC50 (RPMI-7951) was over 500 nM, the IC50 (SCC-15) was over 500 nM and the IC50 (SK-LU-1) was over 500 nM. The IC50 (SK-PN-DW) was over 500 nM, the IC50 (SK-UT-1) was over 500 nM and the IC50 (SW1783) was over 500 nM. It also gave an IC50 (SW626) of over 500 nM, an IC50 (SW948) of over 500 nM and an IC50 (SiHa) of over 500 nM. The IC50 (T84) was over 500 nM, the IC50 (ALL-PO) was over 500 nM and the IC50 (ATN-1) was over 500 nM. It also gave an IC50 (BB30-HNC) of 166 nM, an IC50 (CAL-85-1) of over 500 nM and an IC50 (TE-8) of over 500 nM. It also gave an IC50 (TK-10) of 267 nM, an IC50 (U-118-MG) of over 500 nM and an IC50 (UO-31) of over 500 nM. For the same compound, the IC50 (UMUC3) was over 500 nM, the IC50 (CCRF-CEM) was over 500 nM and the IC50 (COLO-320-HSR) was over 500 nM. The IC50 (COLO-668) was over 500 nM and the IC50 (COLO-684) was over 500 nM.
